From ChEMBL document CHEMBL1201862, “PubChem BioAssay data set” (2004)
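Where inhibition never reached the appropriate level, the endpoint shown equals the highest concentration tested. Otherwise, values were interpolated linearly from a five-concentration, 48-hour dose response in 96-well plates. At the GI50, growth is halved.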 Calls of active or inactive are those of the source. Rule as the data show it: active = GI50 up to about 1.1 µM and inactive = higher.

Assays:
Test in all cases: DTP human tumour cell line panel, 48 h
SF-295 = test system: SF-295
LOX IMVI = test system: LOX IMVI
SN12C = test system: SN12C
SK-MEL-2 = test system: SK-MEL-2
KM12 = test system: KM12
CAKI-1 = test system: CAKI-1
786-0 = test system: 786-0
OVCAR-5 = test system: OVCAR-5
NCI-H226 = test system: NCI-H226
SW-620 = test system: SW-620
NCI-H522 = test system: NCI-H522
BT-549 = test system: BT-549
K562 = test system: K562
HT-29 = test system: HT-29
M14 = test system: M14
OVCAR-8 = test system: OVCAR-8
UACC-62 = test system: UACC-62
RXF 393 = test system: RXF 393
MDA-MB-435 = test system: MDA-MB-435
Hs-578T = test system: Hs-578T

Measured: GI50

COc1cc(O)c2c(=O)c(O)c(-c3ccc(O)c(OC)c3)oc2c1 [RHAMNAZIN]
inactive: SF-295 > 100 µM | LOX IMVI 3.19 µM | SN12C > 100 µM | SK-MEL-2 > 100 µM | KM12 3.47 µM | CAKI-1 3.5 µM | 786-0 3.44 µM | OVCAR-5 > 100 µM | NCI-H226 > 26.5 µM | SW-620 18.5 µM | NCI-H522 2.3 µM | BT-549 2 µM | K562 4.37 µM | HT-29 44.2 µM | M14 4.66 µM | OVCAR-8 3.52 µM

COc1cc2c3c(c1OC)Oc1ccc(cc1)CC1c4c(cc(OC)c(OC)c4Oc4ccc(cc4)CC3N(C)CC2)CCN1C (stereo not drawn)
inactive: SF-295 18.5 µM | LOX IMVI 17.7 µM | SN12C 19 µM | SK-MEL-2 32.3 µM | KM12 34.4 µM | UACC-62 19 µM | CAKI-1 90.6 µM | 786-0 19.8 µM | OVCAR-5 56.6 µM | NCI-H226 15.6 µM | SW-620 15.1 µM | NCI-H522 12.7 µM | RXF 393 12.9 µM | K562 16.9 µM | HT-29 15.1 µM | M14 18.8 µM | OVCAR-8 20.2 µM

Cc1coc2c1C(=O)C(=O)c1ccccc1-2
inactive: SF-295 1.65 µM | SK-MEL-2 1.87 µM | KM12 1.81 µM | UACC-62 1.59 µM | CAKI-1 1.86 µM | 786-0 1.84 µM | OVCAR-5 2.11 µM | NCI-H226 1.21 µM | SW-620 1.41 µM | NCI-H522 1.72 µM | RXF 393 1.74 µM | HT-29 1.8 µM | M14 1.35 µM
active: LOX IMVI 0.305 µM | SN12C 0.838 µM | K562 0.335 µM | OVCAR-8 0.322 µM

COc1ccc2c(C)cc(C)nc2n1
inactive: SF-295 > 100 µM | LOX IMVI > 100 µM | SN12C > 100 µM | SK-MEL-2 > 100 µM | KM12 > 100 µM | UACC-62 > 100 µM | CAKI-1 > 100 µM | 786-0 > 100 µM | OVCAR-5 > 100 µM | SW-620 > 100 µM | MDA-MB-435 > 100 µM | NCI-H522 > 100 µM | RXF 393 > 100 µM | BT-549 > 100 µM | K562 > 100 µM | HT-29 > 100 µM | M14 > 100 µM | OVCAR-8 > 100 µM

OC[C@H]1CCCC1O (stereo partly drawn)
inactive: SF-295 > 100 µM | SN12C > 100 µM | SK-MEL-2 > 100 µM | KM12 > 100 µM | UACC-62 > 100 µM | CAKI-1 > 100 µM | 786-0 > 100 µM | OVCAR-5 > 100 µM | NCI-H226 > 100 µM | SW-620 > 100 µM | MDA-MB-435 > 100 µM | NCI-H522 > 100 µM | RXF 393 > 100 µM | BT-549 > 100 µM | K562 > 100 µM | HT-29 > 100 µM | M14 > 100 µM | OVCAR-8 > 100 µM

[O-][n+]1c(CN2CCCCC2)nc2cccc3c2c1-c1ccccc1-3
inactive: SF-295 28.7 µM | LOX IMVI 19.4 µM | SN12C 17.1 µM | SK-MEL-2 23 µM | KM12 26.4 µM | UACC-62 16.4 µM | CAKI-1 25.4 µM | 786-0 16.7 µM | OVCAR-5 21.3 µM | NCI-H226 16.9 µM | SW-620 28.8 µM | MDA-MB-435 32.1 µM | RXF 393 13.7 µM | BT-549 48.3 µM | K562 77.6 µM | HT-29 17.3 µM | M14 15.9 µM | OVCAR-8 22.8 µM

C[C@@H]1OC(=O)C[C@H]2CC(=O)N(CCC3CN(S(=O)(=O)C(F)(F)F)c4ccccc43)C[C@@H]21 (stereo partly drawn)
inactive: SF-295 > 100 µM | SK-MEL-2 > 100 µM | KM12 > 100 µM | UACC-62 > 100 µM | CAKI-1 > 100 µM | 786-0 > 100 µM | OVCAR-5 > 100 µM | SW-620 > 100 µM | MDA-MB-435 > 100 µM | NCI-H522 > 100 µM | RXF 393 > 100 µM | K562 > 100 µM | HT-29 > 100 µM | M14 > 100 µM | Hs-578T 85.1 µM

N#CC(C#N)=Cn1c(=S)[nH]c2ccccc21
inactive: SF-295 > 100 µM | LOX IMVI > 100 µM | SN12C > 100 µM | SK-MEL-2 > 100 µM | KM12 > 100 µM | UACC-62 > 100 µM | CAKI-1 > 100 µM | 786-0 > 100 µM | OVCAR-5 > 100 µM | NCI-H226 > 100 µM | SW-620 > 100 µM | MDA-MB-435 > 100 µM | NCI-H522 > 100 µM | RXF 393 > 100 µM | K562 > 100 µM | HT-29 > 100 µM | M14 > 100 µM | Hs-578T > 100 µM | OVCAR-8 > 100 µM

CNC(=O)Oc1ccc(-c2cn3cc(OC(=O)NC)ccc3n2)cc1
inactive: SF-295 64.6 µM | LOX IMVI 34.3 µM | SN12C 42.8 µM | SK-MEL-2 > 100 µM | KM12 44 µM | UACC-62 28.4 µM | CAKI-1 34.1 µM | 786-0 26.7 µM | OVCAR-5 > 100 µM | NCI-H226 > 100 µM | SW-620 35.1 µM | MDA-MB-435 31.7 µM | RXF 393 60 µM | BT-549 > 100 µM | K562 22.6 µM | HT-29 41.5 µM | M14 41.7 µM | OVCAR-8 49.9 µM

COC1OC(COC(=O)c2cc(O)c(O)c(O)c2)C(OC(=O)c2cc(O)c(O)c(O)c2)C(OC(=O)c2cc(O)c(O)c(O)c2)C1OC(=O)c1cc(O)c(O)c(O)c1 (stereo not drawn)
inactive: SF-295 34.9 µM | LOX IMVI 13.5 µM | SN12C 27.2 µM | SK-MEL-2 > 100 µM | KM12 22.4 µM | UACC-62 14.4 µM | CAKI-1 41.4 µM | 786-0 13.3 µM | OVCAR-5 57.5 µM | NCI-H226 4.48 µM | SW-620 31.6 µM | MDA-MB-435 12.9 µM | NCI-H522 15 µM | RXF 393 64.1 µM | K562 21.5 µM | HT-29 33.5 µM | M14 13.1 µM | Hs-578T > 100 µM | OVCAR-8 27.2 µM

N#CCC(=O)N/N=C1/C(=O)N(c2cc(Cl)ccc2Cl)C(=O)C(=O)C1c1nc2ccccc2s1 (stereo not drawn)
inactive: SF-295 94.4 µM | LOX IMVI 64 µM | SN12C > 100 µM | SK-MEL-2 37.9 µM | KM12 > 100 µM | UACC-62 29.8 µM | CAKI-1 29.5 µM | 786-0 > 100 µM | OVCAR-5 > 100 µM | NCI-H226 > 100 µM | SW-620 73.5 µM | NCI-H522 61 µM | K562 > 100 µM | HT-29 > 100 µM | M14 > 100 µM | OVCAR-8 81.5 µM
active: RXF 393 < 0.01 µM

COc1ccc(-c2onc(-c3c(C)cc(C)cc3C)c2C2=NCCN2)cc1
inactive: SF-295 17.6 µM | LOX IMVI 30.1 µM | SN12C 48.6 µM | SK-MEL-2 48.2 µM | KM12 44.5 µM | UACC-62 36.3 µM | CAKI-1 21.1 µM | 786-0 31.1 µM | OVCAR-5 > 100 µM | NCI-H226 17.8 µM | SW-620 47.2 µM | NCI-H522 > 10 µM | RXF 393 39.2 µM | K562 28.2 µM | HT-29 25.5 µM | M14 19.5 µM | OVCAR-8 34.8 µM

COC(=O)c1c(C(=O)OC)c2ccc(-c3ccc(Cl)cc3)nn2c1C(=O)c1ccc([N+](=O)[O-])cc1
inactive: SF-295 > 100 µM | LOX IMVI 39 µM | SN12C > 100 µM | SK-MEL-2 34.8 µM | KM12 > 100 µM | UACC-62 > 100 µM | CAKI-1 32.9 µM | 786-0 39.4 µM | OVCAR-5 > 100 µM | NCI-H226 > 100 µM | SW-620 41.5 µM | MDA-MB-435 50.1 µM | NCI-H522 17.4 µM | RXF 393 8.83 µM | K562 14.2 µM | HT-29 37.2 µM | M14 40.6 µM | OVCAR-8 36.2 µM

COc1cc2c(cc1OC)[C@@H](C(O)c1ccccc1)NCC2 (stereo partly drawn)
inactive: SF-295 > 100 µM | LOX IMVI > 100 µM | SN12C > 100 µM | SK-MEL-2 > 100 µM | KM12 > 100 µM | UACC-62 > 100 µM | CAKI-1 > 100 µM | 786-0 > 100 µM | OVCAR-5 > 100 µM | NCI-H226 > 100 µM | SW-620 > 100 µM | NCI-H522 > 100 µM | RXF 393 > 100 µM | K562 > 100 µM | HT-29 > 100 µM | M14 > 100 µM | OVCAR-8 > 100 µM

COc1ccc(C2C(Cl)C(=O)N2NC(=O)Cc2ccccc2)cc1OC (stereo not drawn)
inactive: SF-295 > 100 µM | LOX IMVI > 100 µM | SN12C > 100 µM | SK-MEL-2 > 100 µM | KM12 > 100 µM | UACC-62 > 100 µM | CAKI-1 > 100 µM | 786-0 > 100 µM | OVCAR-5 > 100 µM | NCI-H226 > 100 µM | SW-620 > 100 µM | NCI-H522 > 100 µM | RXF 393 > 100 µM | K562 > 100 µM | HT-29 > 100 µM | M14 > 100 µM | OVCAR-8 > 100 µM

CCCCCCCCCCCCC(=O)CCCCC(=O)O
inactive: SF-295 23.4 µM | LOX IMVI 21 µM | SN12C 24 µM | SK-MEL-2 20.7 µM | KM12 15.8 µM | UACC-62 17.9 µM | CAKI-1 32.5 µM | 786-0 27.2 µM | OVCAR-5 18.2 µM | NCI-H226 22.9 µM | SW-620 30.3 µM | NCI-H522 20.3 µM | RXF 393 34.9 µM | K562 16.2 µM | HT-29 15.8 µM | M14 17.5 µM | OVCAR-8 17.5 µM
